These results are taken from US7590493B2, “Methods for determining hepatotoxins” (priority 2000, dated 2009).

The conditions of data set [1]: cited from earlier work.
For data set [2] the following is noted: in vivo; cited from earlier work.
For data set [3] the following is noted: 24 hours, cited from earlier work.
Data set [4] in a line: Inventors' rat studies: liver pathology and clinical chemistry.
The conditions of data set [5]: cited from earlier work. This is another data set of the same source.
Data set [6] concerns c-fos, c-jun, c-myc. The note with it: post dose, acute administration; cited from earlier work.
The conditions of data set [7]: cited from earlier work. This is another data set of the same source.
The conditions of data set [8]: amitriptyline 600 mg/kg oral, PB 80 mg/kg IP, cited from earlier work; for microsomal phosphatidylcholine content: 6-24 hr.
For data set [9] the following is noted: single oral dose 600 mg/kg, cited from earlier work.
For data set [10] the following is noted: single dose, within 24 hours (Fracasso 1990); cited from earlier work.
The test system of data set [11] is human hepatoma cell lines. The settings on record: in vitro; cited from earlier work.
For data set [12], the system named is primary rat hepatocytes. The settings on record: in vitro; cited from earlier work.

With `C#C[C@]1(O)CC[C@H]2[C@@H]3CCc4cc(O)ccc4[C@H]3CC[C@@]21C` [17α-ethinylestradiol], in data set [1] (after 3 days of drug administration), the bile flow entry was “decrease”. In [1] (rat, in vivo), the “plasma cholesterol and plasma triglyceride levels” value is recorded as “decrease”; the “plasma levels of bilirubin, bile salts, AST and ALT” value is reported as “not changed”.

Take `S=C=Nc1cccc2ccccc12` [ANIT, alpha-naphthylisothiocyante]: in data set [2], the “liver weight vs control-treated” value is recorded as “significantly heavier”; the “serum ALT, gamma-glutamyl transpeptidase, total bilirubin, lipid peroxide and total bile acids” value is recorded as “significant increases”. Besides, the “levels of total bilirubin, alkaline phosphatase, serum glutamic oxaloacetic transaminase and serum glutamic pyruvic transaminase” value in data set [3] (80 mg/kg oral in olive oil) is “significantly increased”. In addition, in data set [3] (80 mg/kg oral), the total bile flow result is “reduced”.

With `O=C(CCN1CCN2CCCC2C1)N1c2ccccc2Sc2ccc(Cl)cc21` (stereo not shown) [AY-25329], the “mitosis rates / mitotic activity” value in data set [4] (rat liver) was “increased”. Also, the glycogen levels entry in [4] (rat liver, all rats examined) is given as “decreased”.

For `CC(O)(CS(=O)(=O)c1ccc(F)cc1)C(=O)Nc1ccc(C#N)c(C(F)(F)F)c1` (stereo not shown) [Bicalutamide], the hepatocellular hypertrophy entry in data set [4] (rat) was “minor degree”. In addition, the “mitosis rates / mitotic activity” value in [4] (rat liver) is recorded as “increase”.

For `ClC(Cl)(Cl)Cl` [CCl4, carbon tetrachloride], the “ALT and AST peak levels, increase” value in data set [5] (0.1, 1, 2, 3, 4 mL/kg ip, […] po, within 48 hours post dose) is listed as 5-10 fold. The “serum α-glutathione s-transferase (α-GST) levels” value in [5] (25 μL/kg po, as early as 2 hours) is “Significant increases”. Also, in data set [6], the “time of peak hepatic mRNA level, c-fos” value is 1 to 2 h; the “time of peak hepatic mRNA level, c-jun” value is 3 h; the “time of peak hepatic mRNA level, c-myc” value was 1 h.

`CC(=O)O[C@]1(C(C)=O)CC[C@H]2[C@@H]3C=C(Cl)C4=CC(=O)[C@@H]5C[C@@H]5[C@]4(C)[C@H]3CC[C@@]21C` [CPA, cyproterone acetate]: the “occurrence of S phase cells” value in [7] (rat liver) is given as “increased”. In addition, the DNA repair activity entry in data set [7] (single oral dose 100 mg CPA/kg body weight, after 16 hours) is listed as “continuous DNA repair activity was observed”.

`CCOC(=O)C(C)(C)Oc1ccc(Cl)cc1` [Clofibrate]: the hepatocellular alterations entry in data set [4] (following early AST/ALT increases) is given as “dose-dependent”. The “mitosis rates / mitotic activity” value in data set [4] (rat liver) was “increased”. Besides, the “AST and ALT levels” value in data set [4] (rat, in vivo) is “early increases”.

For the compound `CCC1(c2ccccc2)C(=O)NC(=O)NC1=O` [PB, phenobarbital], the microsomal phosphatidylcholine content result in [8] was “increase”.

`CN(C)CCC=C1c2ccccc2CCc2ccccc21` [amitriptyline]: the “aminolevulinic acid (ALA) activity” value in data set [9] (12 and 24 hours) was “marked increase”. Also, in [9], the “cytochrome P450 (CYP450) content” value is recorded as “remained the same”; the “total heme and cytochrome b5 levels” value is reported as “increased”. Besides, in [8], the microsomal phosphatidylcholine content result is recorded as “increase”; the “levels of GAT and PCT” value is recorded as “slightly affected”; the “levels of PPH and CPT” value is on record as “significantly altered”.

In the case of `COc1ccc2c(c1)c(CC(=O)O)c(C)n2C(=O)c1ccc(Cl)cc1` [indomethacin], the “liver and renal microsomal enzymes, including CYP450” value in data set [10] is recorded as “reduce”.

`Nc1c2c(nc3ccccc13)CCCC2` [tacrine]: the cytotoxicity entry in [11] and in [12] was “displayed cytotoxicity” throughout.
